According to US20180238886A1, “METHODS FOR TREATING HEMATOLOGICAL CANCER AND THE USE OF BIOMARKERS AS A PREDICTOR FOR RESPONSIVENESS TO TREATMENT COMPOUNDS” (CELGENE CORPORATION, priority 2017, published 2018):

Test system: DLBCL patients
Assay: Clinical evaluation of gene classifiers in the Compound A cohort (progression free survival, objective response)
Assay type: in vivo, human
Set-up: Median Surv BM+ / Median Surv BM−: unit not given here
Conditions: for Predictive Effects Cox HR: BM+ vs BM-; for Predictive Effects Cox HR / Median Surv BM− / Median Surv BM+: progression free survival, Cmp A-ST (N = 57); for Median Surv BM−: biomarker-negative patients; for Median Surv BM+: biomarker-positive patients; for CR BM+ / CR BM−: number of complete responses; for OR BM+ / OR BM−: number of objective responses
Text: A proof of principle study was designed to translate the biomarker content and model to a clinically viable platform. The study consisted of four major steps: 1) development of a simplified linear model of the primary signal, 2) placing the model in the scale of a clinically viable technology (such as but not limited to, Nanostring nCounter or qRT-PCR), 3) establishing a threshold to replicate the output of the research assay, and 4) evaluating the simplified model and threshold in the Compound A cohort. The final model was applied to the Lenz microarray cohort and the Compound A Non-transformed cohort assayed by Nanostring nCounter. The classification of each sample was then combined with clinical data, and associations with clinical variables such as objective response and progression free survival were calculated. Results are shown as Kaplan-Meier plots in FIGS. 4A-4D. […] FIGS. 4A and 4C show the original 26 gene research classifier, and FIGS. 4B and 4D show the linear model that resulted from this bridging study. […] Importantly, the shapes of the curves for each group are very similar between the original 26 gene classifier and the bridged linear model. Additional results including biomarker prevalence, summary statistics from Cox Proportional Hazards models, objective response, and model details are listed in Table 6.

[1] = CG26 classifier, BM+ (25 patients)
[2] = CG26 classifier, BM− (32 patients)
[3] = M1 classifier, BM+ (22 patients)
[4] = M1 classifier, BM− (35 patients)

What does the source list for `Cc1nc2cccc(N)c2c(=O)n1C1CCC(=O)NC1=O` (centres unmarked) [Compound A, 3-(5-amino-2-methyl-4-oxo-4H-quinazolin-3-yl)-piperidine-2,6-dione]?
Predictive Effects Cox HR (CG26 classifier): 0.31; Median Surv BM− (CG26 classifier): 6.7; Median Surv BM+ (CG26 classifier): 35.9; Predictive Effects Cox HR (M1 classifier): 0.32; Median Surv BM− (M1 classifier): 6.9; Median Surv BM+ (M1 classifier): 37.9; CR BM+ [1]: 4; CR BM− [2]: 2; CR BM+ [3]: 4; CR BM− [4]: 2; OR BM+ [1]: 12; OR BM− [2]: 5; OR BM+ [3]: 10; OR BM− [4]: 7
